Where two headings read alike, the source gives them in different places. One block for each compound: values may come before it. Residues, ends and D or L forms follow the SMILES beside them. *: point of attachment. Decanoyl = CCCCCCCCCC(=O)*; Octanoyl = CCCCCCCC(=O)*; Butyryl = CCCC(=O)*
How the values were obtained:
[1] = Carboxyfluorescein release assay, mammalian liposome model; assay type: biochemical; details: 65:5:30 POPC:POPS:Chol. liposomes, 25 µM lipid, 10 mM PBS pH 7.4, 10^–5–10^2 µM peptide, 60 min, fluorescence, Hill fit, n = 3; read-out: EC50 Mammalial (concentration that triggers 50% CF release)
Experimental: (§1) Liposomes were prepared by thin-film hydration method. Lipids stock solutions (10 mg/ml in chloroform, Avanti Polar Lipids, Inc., Alabaster, United States) of the lipids 1-palmitoyl-2-oleoyl-sn-glycero-3-phosphocholine (POPC), 1-palmitoyl-2-oleoyl-sn-glycero-3-phospho-L-serine (POPS), 1-Hexadecanoyl-2-(9Z-Octadecenoyl)-sn-Glycero-3-Phosphoglycerol (POPG) and Cholesterol (Chol) were employed. Bacterial liposomes were prepared with a 75:25 ratio of POPC:POPG and mammalian liposomes were prepared with a 65:5:30 ratio of POPC:POPS:Chol. Lipid solutions were thoroughly homogenised, and the solvent was evaporated with the use of a dry N2 steam to yield a lipid cake. […] The lipid film was subsequently hydrated with a 5(6)-CF solution (50 mM CF, 10 mM PBS, 90 mM NaCl, pH 7.4). Following a 10 min incubation on orbital shaker (50 min^−1), the solution was vortexed for 60 s on medium speed. A mini extruder (Avanti Polar Lipids, Inc., United States) was employed and 21 extrusions were performed through a 0.1 µm filter membrane (Nuclepore track-etched hydrophilic membrane, Cytiva, Whatman, MA, United States), resulting in monodispersed unilamellar liposomes. Directly before use the liposomes were purified from unencapsulated CF by filtration through a gel filtration column (PD Minitrap G-25 column, Cytiva, United States), against PBS buffer (10 mM, pH 7.4).
(§2) Peptide and lipopeptide activity towards liposome models were evaluated using a carboxyfluorescein (CF) release assay. Liposomes were diluted in PBS (10 mM, pH 7.4) to a final lipid concentration of 25 µM and incubated with peptides (10^–5–10^2 µM) in a 96-well plate (n = 3). CF release was monitored using an Infinite M1000 PRO plate reader every 2.5 min for 1 h. Full (100%) CF release was obtained by addition of 1% Triton X-100 solution followed by 10 min incubation. CF release percentage was evaluated according to the formula 100 * (F − F0)/(FT − F0), where F indicates the instantaneous fluorescence, FT the total fluorescence and F0 the background fluorescence prior to peptide addition. Data were fitted to a Hill-1 curve using MATLAB R2019a (The MathWorks Inc., Natick, Massachusetts, United States) and the half maximum effective concentration (EC50) was extracted.

E. coli (K-12 MG1655) = tested on: E. coli (K-12 MG1655)
Experimental: (§3) S. aureus (ATCC 29213, MSSA, ATCC, Manassas, VA), E. coli (K-12 MG1655) and clinical isolates of S. aureus, E. coli, E. faecium, K. pneumoniae, A. baumannii, P. aeruginosa and E. cloacae obtained from the Department of Laboratory Medicine at Örebro University Hospital were streaked on Luria–Bertani (LB) agar plates and incubated at 37 °C overnight. Single colonies were inoculated into 5 ml of LB broth and incubated on a shaker (400 rpm) at 37 °C overnight. The bacterial concentrations were determined by viable count and were adjusted to correlate with approximately 10^9 CFU/ml.
(§4) The broth microdilution method was used to determine minimal inhibitory concentration (MIC) and minimal bactericidal concentration (MBC), in accordance with the EUCAST standards for the broth microdilution method. Two-fold serial dilutions of the lipopeptides were used, and the final concentrations ranged from 0.19 to 100 µM. In brief, two-fold serial dilutions of the lipopeptides were performed in a 96-well plate in PBS, with a final volume of 100 µl per well, after which 100 µl of LB-broth media containing approximately 5 × 10^5 CFU/ml of bacteria was added to each well. The plate was then incubated for 20 h in 37 °C on a shaker (400 rpm). The effect of lipopeptide-antibiotic combinations was investigated by performing checkerboard assays. The assays were performed in accordance with the MIC and MBC tests conducted above, but with horizontal and longitudinal two-fold serial dilutions of the tested compounds. […] The fractional inhibitory concentration (FIC) and fractional bactericidal concentration (FBC) were calculated by the equation (MIC or MBC of peptide in combination/MIC or MBC of peptide alone) + (MIC or MBC of antibiotic in combination/MIC or MBC of antibiotic alone). Synergy was defined as FIC/FBC ≤ 0.5, additive when 0.5 < FIC/FBC ≤ 1, indifferent when 1 < FIC/FBC < 2 and antagonistic when FIC/FBC ≥ 2. All experiments were repeated at least three times.

[2] = tested on: S. aureus (ATCC 29213, MSSA)
Experimental: as §3, §4

[3] = Carboxyfluorescein release assay, bacterial liposome model; assay type: biochemical; details: 75:25 POPC:POPG liposomes, 25 µM lipid, 10 mM PBS pH 7.4, 10^–5–10^2 µM peptide, 60 min, fluorescence, Hill fit, n = 3; read-out: EC50 Bacterial (concentration that triggers 50% CF release)
Experimental: as §1, §2

[4] = Table 3, K-12 MG1655, broth microdilution, 50:50 PBS/LB-broth, 200 µL, 20 h, 37 °C
[5] = Table 3, ATCC 29213, broth microdilution, 50:50 PBS/LB-broth, 200 µL, 20 h, 37 °C

Compound: CCCC(=O)N[C@@H](CC(C)C)C(=O)NCC(=O)N[C@H](C(=O)N[C@@H](CCCCN)C(=O)N[C@H](C(=O)N[C@@H](CC(C)C)C(=O)N[C@@H](Cc1c[nH]c2ccccc12)C(=O)N[C@@H](CO)C(=O)N[C@@H](C)C(=O)N[C@@H](Cc1ccc(O)cc1)C(=O)N[C@@H](CCCCN)C(=O)N[C@@H](Cc1c[nH]cn1)C(=O)N[C@@H](CCCNC(=N)N)C(=O)N[C@@H](CCCCN)C(=O)N[C@H](C(=O)N[C@H](C(N)=O)[C@@H](C)CC)[C@@H](C)O)[C@@H](C)CC)[C@@H](C)CC [L-6-C4] (Butyryl-LGIKILWSAYKHRKTI-NH2)
- EC50 [1]: > 10000 nM
- E. coli MBC (E. coli (K-12 MG1655); K-12, 20 h): 25 µM
- E. coli MIC (E. coli (K-12 MG1655); K-12, 20 h): 12.5 µM
- S. aureus MBC ([2]; ATCC 29213, 20 h): 25 µM
- S. aureus MIC ([2]; ATCC 29213, 20 h): 12.5 µM
- EC50 [3]: 110 nM

Compound: CCCCCCCC(=O)N[C@@H](CC(C)C)C(=O)NCC(=O)N[C@H](C(=O)N[C@@H](CCCCN)C(=O)N[C@H](C(=O)N[C@@H](CC(C)C)C(=O)N[C@@H](Cc1c[nH]c2ccccc12)C(=O)N[C@@H](CO)C(=O)N[C@@H](C)C(=O)N[C@@H](Cc1ccc(O)cc1)C(=O)N[C@@H](CCCCN)C(=O)N[C@@H](Cc1c[nH]cn1)C(=O)N[C@@H](CCCNC(=N)N)C(=O)N[C@@H](CCCCN)C(=O)N[C@H](C(=O)N[C@H](C(N)=O)[C@@H](C)CC)[C@@H](C)O)[C@@H](C)CC)[C@@H](C)CC [L-6-C8] (Octanoyl-LGIKILWSAYKHRKTI-NH2)
- EC50 [1]: 940 nM
- E. coli MBC (E. coli (K-12 MG1655); K-12, 20 h): 12.5 µM
- E. coli MIC (E. coli (K-12 MG1655); K-12, 20 h): 12.5 µM
- S. aureus MBC ([2]; ATCC 29213, 20 h): 3.1 µM
- S. aureus MIC ([2]; ATCC 29213, 20 h): 3.1 µM
- EC50 [3]: 190 nM

Compound: CCCCCCCCCC(=O)N[C@@H](CC(C)C)C(=O)NCC(=O)N[C@H](C(=O)N[C@@H](CCCCN)C(=O)N[C@H](C(=O)N[C@@H](CC(C)C)C(=O)N[C@@H](Cc1c[nH]c2ccccc12)C(=O)N[C@@H](CO)C(=O)N[C@@H](C)C(=O)N[C@@H](Cc1ccc(O)cc1)C(=O)N[C@@H](CCCCN)C(=O)N[C@@H](Cc1c[nH]cn1)C(=O)N[C@@H](CCCNC(=N)N)C(=O)N[C@@H](CCCCN)C(=O)N[C@H](C(=O)N[C@H](C(N)=O)[C@@H](C)CC)[C@@H](C)O)[C@@H](C)CC)[C@@H](C)CC [L-6-C10] (Decanoyl-LGIKILWSAYKHRKTI-NH2)
- EC50 [1]: 680 nM
- E. coli MBC (E. coli (K-12 MG1655); K-12, 20 h): > 100 µM
- E. coli MIC (E. coli (K-12 MG1655); K-12, 20 h): > 100 µM
- S. aureus MBC ([2]; ATCC 29213, 20 h): > 100 µM
- S. aureus MIC ([2]; ATCC 29213, 20 h): 50 µM
- EC50 [3]: 1100 nM

Compound: Ac-ILWSAYKHR-NH2 [S2]
- E. coli MBC (E. coli (K-12 MG1655); K-12, 20 h): > 100 µM
- E. coli MIC (E. coli (K-12 MG1655); K-12, 20 h): > 100 µM
- S. aureus MBC ([2]; ATCC 29213, 20 h): > 100 µM
- S. aureus MIC ([2]; ATCC 29213, 20 h): > 100 µM

Compound: Ac-KILWSAYKHR-NH2 [S1]
- E. coli MBC (E. coli (K-12 MG1655); K-12, 20 h): > 100 µM
- E. coli MIC (E. coli (K-12 MG1655); K-12, 20 h): > 100 µM
- S. aureus MBC ([2]; ATCC 29213, 20 h): > 100 µM
- S. aureus MIC ([2]; ATCC 29213, 20 h): > 100 µM

Compound: Ac-LWSAYKHR-NH2 [S3]
- E. coli MBC (E. coli (K-12 MG1655); K-12, 20 h): > 100 µM
- E. coli MIC (E. coli (K-12 MG1655); K-12, 20 h): > 100 µM
- S. aureus MBC ([2]; ATCC 29213, 20 h): > 100 µM
- S. aureus MIC ([2]; ATCC 29213, 20 h): > 100 µM

Compound: Ac-WSAYK-NH2 [S6]
- E. coli MBC (E. coli (K-12 MG1655); K-12, 20 h): > 100 µM
- E. coli MIC (E. coli (K-12 MG1655); K-12, 20 h): > 100 µM
- S. aureus MBC ([2]; ATCC 29213, 20 h): > 100 µM
- S. aureus MIC ([2]; ATCC 29213, 20 h): > 100 µM

Compound: Ac-WSAYKH-NH2 [S5]
- E. coli MBC (E. coli (K-12 MG1655); K-12, 20 h): > 100 µM
- E. coli MIC (E. coli (K-12 MG1655); K-12, 20 h): > 100 µM
- S. aureus MBC ([2]; ATCC 29213, 20 h): > 100 µM
- S. aureus MIC ([2]; ATCC 29213, 20 h): > 100 µM

Compound: Ac-WSAYKHR-NH2 [S4]
- E. coli MBC (E. coli (K-12 MG1655); K-12, 20 h): > 100 µM
- E. coli MIC (E. coli (K-12 MG1655); K-12, 20 h): > 100 µM
- S. aureus MBC ([2]; ATCC 29213, 20 h): > 100 µM
- S. aureus MIC ([2]; ATCC 29213, 20 h): > 100 µM

- E. coli MIC (E. coli (K-12 MG1655); [4]): > 100 µM
- S. aureus MIC [2, 5]: > 100 µM
Compound: PEG800-LGIKILWSAYKHRKTI [L-6-Peg800]
- E. coli MBC (E. coli (K-12 MG1655); [4]): > 100 µM
- S. aureus MBC [2, 5]: > 100 µM

From paper PMC10011573, “Development of novel broad-spectrum antimicrobial lipopeptides derived from plantaricin NC8 β” (Scientific Reports, 2023)
